Results as given in the supplement of paper PMC13380429.

Columns and labels:
Settings in all cases: 72 h
U2OS [1] = assay: relative viability EC50 (midpoint between 100% and the lowest measured viability); higher = less toxic
Vero E6 [2] = assay: as above
HepG2 [3] = assay: as above
Caco-2 [4] = assay: as above
U2OS [5] = assay: drug sensitivity score (DSS) for viability; higher = more toxic; extreme values may be limits of the assay
Vero E6 [6] = assay: as above
HepG2 [7] = assay: as above
Caco-2 [8] = assay: as above
U2OS [9] = assay: cell viability relative to DMSO; higher = less toxic
Vero E6 [10] = assay: as above
HepG2 [11] = assay: as above
Caco-2 [12] = assay: as above
Calu-3 [13] = assay: relative viability EC50 (midpoint between 100% and the lowest measured viability); higher = less toxic
Calu-3 [14] = assay: drug sensitivity score (DSS) for viability; higher = more toxic; extreme values may be limits of the assay
Calu-3 [15] = assay: cell viability relative to DMSO; higher = less toxic

Row | Compound | relative viability EC50 (U2OS [1]) | relative viability EC50 (Vero E6 [2]) | relative viability EC50 (HepG2 [3]) | relative viability EC50 (Caco-2 [4]) | drug sensitivity score (U2OS [5]) | drug sensitivity score (Vero E6 [6]) | drug sensitivity score (HepG2 [7]) | drug sensitivity score (Caco-2 [8]) | cell viability (U2OS [9]; 1 nM) | cell viability (U2OS [9]; 10 nM) | cell viability (U2OS [9]; 100 nM) | cell viability (U2OS [9]; 1000 nM) | cell viability (U2OS [9]; 10000 nM) | cell viability (Vero E6 [10]; 1 nM) | cell viability (Vero E6 [10]; 10 nM) | cell viability (Vero E6 [10]; 100 nM) | cell viability (Vero E6 [10]; 1000 nM) | cell viability (Vero E6 [10]; 10000 nM) | cell viability (HepG2 [11]; 1 nM) | cell viability (HepG2 [11]; 10 nM) | cell viability (HepG2 [11]; 100 nM) | cell viability (HepG2 [11]; 1000 nM) | cell viability (HepG2 [11]; 10000 nM) | cell viability (Caco-2 [12]; 1 nM) | cell viability (Caco-2 [12]; 10 nM) | cell viability (Caco-2 [12]; 100 nM) | cell viability (Caco-2 [12]; 1000 nM) | cell viability (Caco-2 [12]; 10000 nM) | relative viability EC50 (Calu-3 [13]) | drug sensitivity score (Calu-3 [14]) | cell viability (Calu-3 [15]; 1 nM) | cell viability (Calu-3 [15]; 10 nM) | cell viability (Calu-3 [15]; 100 nM) | cell viability (Calu-3 [15]; 1000 nM) | cell viability (Calu-3 [15]; 10000 nM)
1 | CC(=O)Nc1ccc(S(=O)(=O)c2ccc(NC(C)=O)cc2)cc1 [acedapsone] | > 10 µM | > 10 µM | > 10 µM | > 10 µM | 0 | 0 | 0 | 0 | 104% | 108% | 102% | 104% | 97.4% | 106% | 101% | 105% | 99.5% | 98.8% | 105% | 97.3% | 86.3% | 107% | 102% | 119% | 115% | 96.2% | 108% | 92.9% |  |  |  |  |  |  | 
2 | NS(=O)(=O)c1cc2c(cc1C(F)(F)F)NC(Cc1ccccc1)NS2(=O)=O (stereo not drawn) [bendroflumethiazide] |  | > 10 µM | > 10 µM | > 10 µM |  | 0 | 0 | 0 |  |  |  |  |  | 92.4% | 94.9% | 91.7% | 92.4% | 109% | 106% | 87.1% | 98.7% | 93.3% | 98.6% | 96.6% | 101% | 96.9% | 99.1% | 108% | > 10 µM | 0 | 109% | 110% | 107% | 98.2% | 95.1%
3 | CC(C)[C@H]1C(=O)N[C@@H](CCCNC(=N)N)C(=O)NCC(=O)N[C@@H](CC(=O)O)C(=O)N[C@H](Cc2ccccc2)C(=O)N1C [cilengitide] |  | 1.57 µM | > 10 µM | 1.39 µM |  | 7.7 | 0 | 5.8 |  |  |  |  |  | 98.1% | 101% | 98.8% | 79.8% | 17% | 103% | 103% | 92.6% | 116% | 103% | 98.6% | 95.4% | 96.5% | 80.5% | 41.1% |  | 2.8 | 97.6% | 94.3% | 87.1% | 89.4% | 70.5%
4 | Cc1cn([C@H]2O[C@@H](CO)[C@H](O)[C@H]2F)c(=O)[nH]c1=O [clevudine] | > 10 µM |  | > 10 µM | > 10 µM | 0 |  | 0 | 0 | 92.4% | 102% | 101% | 98.2% | 97.2% |  |  |  |  |  | 105% | 92.7% | 104% | 95.2% | 97.1% | 102% | 105% | 94.4% | 108% | 87.5% | > 10 µM | 0 | 90.3% | 106% | 106% | 97.9% | 99.3%
5 | C=C(CC)C(=O)c1ccc(OCC(=O)O)c(Cl)c1Cl [etacrynic-acid] | > 10 µM |  | > 10 µM | > 10 µM | 0 |  | 0.1 | 0 | 98.7% | 101% | 97.8% | 102% | 103% |  |  |  |  |  | 99.4% | 110% | 105% | 100% | 86.2% | 93.4% | 100% | 96.2% | 84.9% | 97% | > 10 µM | 0 | 90.3% | 94% | 97.5% | 90.5% | 106%
6 | COc1cccc(N2CCN(C3=Nc4c(F)cccc4[C@H](CC(=O)O)N3c3cc(C(F)(F)F)ccc3OC)CC2)c1 [letermovir] | > 10 µM |  | > 10 µM | > 10 µM | 0 |  | 0 | 0.6 | 105% | 106% | 95.8% | 105% | 94.9% |  |  |  |  |  | 102% | 86.2% | 94.3% | 99.1% | 90.6% | 97.4% | 103% | 103% | 97.9% | 83.1% | > 10 µM | 0 | 99.6% | 96% | 93.9% | 101% | 113%
7 | COC(=O)c1ccccc1O [methyl-salicylate] | > 10 µM | > 10 µM | > 10 µM | > 10 µM | 0 | 0 | 0 | 0 | 98.4% | 97.2% | 101% | 101% | 102% | 110% | 104% | 102% | 102% | 97.3% | 112% | 101% | 102% | 90.9% | 102% | 103% | 99.4% | 101% | 81% | 101% |  |  |  |  |  |  | 
8 | NC(=O)c1ccc[n+]([C@@H]2O[C@H](COP(=O)([O-])OP(=O)(O)OC[C@H]3O[C@@H](n4cnc5c(N)ncnc54)[C@H](O)[C@@H]3O)[C@@H](O)[C@H]2O)c1 [nadide] | > 10 µM |  | > 10 µM | > 10 µM | 0 |  | 0 | 0 | 101% | 95.9% | 97.9% | 101% | 111% |  |  |  |  |  | 110% | 113% | 92.1% | 99.2% | 99.8% | 92.3% | 89.7% | 99.9% | 90.5% | 113% | > 10 µM | 0 | 102% | 103% | 94% | 96.1% | 106%
9 | NCCC[C@H](N)C(=O)O [ornithine] | > 10 µM |  | > 10 µM | > 10 µM | 0 |  | 0 | 0 | 100% | 93.5% | 99.1% | 96.8% | 104% |  |  |  |  |  | 97.3% | 112% | 94.7% | 97.2% | 91.8% | 97.2% | 94.7% | 101% | 101% | 100% | > 10 µM | 0 | 103% | 95.6% | 102% | 102% | 104%
10 | COC(=O)Nc1nc2cc([S+]([O-])c3ccccc3)ccc2[nH]1 (stereo not drawn) [oxfendazole] | > 10 µM | > 10 µM | > 10 µM | > 10 µM | 0 | 0 | 1.2 | 0 | 101% | 96.6% | 103% | 98.1% | 103% | 101% | 106% | 100% | 104% | 90.6% | 90.6% | 92.5% | 98.2% | 98.1% | 75.3% | 97% | 108% | 104% | 94.7% | 97.5% |  |  |  |  |  |  | 
11 | O=C(CCCCCCC(=O)Nc1cccnc1)NO [pyroxamide] | 2.22 µM | 3.14 µM | 1.54 µM | 1.93 µM | 6.5 | 2.9 | 8.7 | 4.2 | 102% | 97.8% | 101% | 90% | 12.6% | 99.6% | 103% | 96.3% | 99.9% | 46% | 106% | 99.6% | 98.7% | 76.8% | 7.6% | 102% | 92.9% | 94.3% | 91.6% | 47.6% |  |  |  |  |  |  | 
12 | O=C(/C=C\n1cnc(-c2cc(C(F)(F)F)cc(C(F)(F)F)c2)n1)NNc1cnccn1 [selinexor] | 0.189 µM | 0.319 µM | 0.0686 µM | 0.248 µM | 18.8 | 12.9 | 19.9 | 10.4 | 97.1% | 89.9% | 75.8% | 12.7% | 7.6% | 98.9% | 102% | 81.9% | 42.4% | 24.3% | 108% | 99.2% | 49.6% | 31.9% | 24.5% | 97% | 87.9% | 89% | 50.4% | 44.2% |  | 12.5 | 104% | 93.4% | 66% | 57% | 56.4%
13 | Cc1ccnc(NS(=O)(=O)c2ccc(N)cc2)n1 [sulfamerazine] | > 10 µM | > 10 µM | > 10 µM | > 10 µM | 0 | 0 | 0 | 0 | 102% | 102% | 94.3% | 97.6% | 100% | 104% | 98.5% | 97.8% | 97.8% | 97.8% | 104% | 94.1% | 95.5% | 109% | 89.3% | 97% | 89.8% | 92% | 98.7% | 98.2% |  |  |  |  |  |  | 
14 | O=C(NS(=O)(=O)c1ccc(Br)s1)c1ccc(Cl)cc1Cl [tasisulam] | > 10 µM |  | > 10 µM | > 10 µM | 0 |  | 0 | 0 | 97.2% | 98.1% | 96% | 101% | 102% |  |  |  |  |  | 114% | 94.2% | 105% | 110% | 107% | 99.7% | 104% | 94.9% | 101% | 92% | > 10 µM | 0 | 96.2% | 104% | 97.6% | 95.4% | 100%
15 | NCCCC[C@H](NC(=O)[C@@H]1CCCN1C(=O)[C@@H]1CSSC[C@H](NC(=O)CNC(=O)CNC(=O)CN)C(=O)N[C@@H](Cc2ccc(O)cc2)C(=O)N[C@@H](Cc2ccccc2)C(=O)N[C@@H](CCC(N)=O)C(=O)N[C@@H](CC(N)=O)C(=O)N1)C(=O)NCC(N)=O [terlipressin] |  | > 10 µM | > 10 µM | > 10 µM |  | 0 | 0 | 0 |  |  |  |  |  | 93.7% | 100% | 86.1% | 91.2% | 110% | 94.4% | 105% | 94.3% | 97.4% | 110% | 100% | 96.5% | 98% | 100% | 103% | > 10 µM | 0 | 93.9% | 92% | 102% | 95.8% | 96.4%
16 | NCCNCCNCCN [trientine] | > 10 µM |  | > 10 µM | > 10 µM | 0 |  | 0 | 0 | 100% | 99.1% | 100% | 97.5% | 104% |  |  |  |  |  | 90.9% | 96.6% | 92.1% | 98% | 92.8% | 107% | 106% | 96.4% | 94.4% | 97.6% | > 10 µM | 0 | 89% | 101% | 99% | 98.7% | 99.9%
